Measurements from US20200255492A1, “LEPTIN PEPTIDES AND THEIR USE FOR TREATING NEUROLOGICAL DISORDERS” (UNIVERSITY OF DUNDEE, priority 2017, published 2020).

Assays:
mice = assay: Murine episodic-like memory test with hexamers; format: in vivo; conditions: IP 7.8 nM/ml; tested 45 minutes post-injection; vs saline
Method: FIG. 24. Bar chart of the quantification of the fluorescent signal per cell following thioflavin S staining of neuronal cultures 96 hours after seeding with 1 μM Amyloid (Ab1-42). Cultures were established in triplicate on 3 separate occasions and statistical significance relative to control untreated cultures is denoted by *** where P<0.001 (A). […] 3 groups of mice (n=8 per group) were IP injected with saline (control) on 7.8 nM/ml leptin116-121 or […]. Memory performance was tested 45 minutes post-injection. Statistical significance relative to saline-injected animals is denoted by * where P<0.05. […] Leptin levels were determined by ELISA, using a commercially-supplied kit (Sigma, UK) and using blood serum harvested 24 hours post injection.
Further to this we have evaluated the effects of these hexamer peptides on episodic memory in mice. There is an 8 fold increase in episodic memory performance following treatment with leptin116-121 or […] (FIG. 24B). This implies that both leptin hexamers enhance the ability of the mice to recognise the presence of a novel object within the test arena.

acute hippocampal slices = assay: HFS-induced LTP with leptin hexamers; format: cell-based, Sprague Dawley rats; conditions: 10 nM for 50 min prior to HFS; control LTP 117±10.8% / 125±4.9%
Method: (§1) Parasagittal hippocampal slices (300 μm) were prepared from either P13-21 or 12-24-week-old male Sprague Dawley rats as previously (Moult et al. 2010). Brains were rapidly removed and placed in ice-cold artificial CSF (aCSF; bubbled with 95% O2 and 5% CO2) containing the following (in mm): 124 NaCl, 3 KCl, 26 NaHCO3, 1.25 NaH2PO4, 2 CaCl2, 1 MgSO4, and 10 d-glucose. Once prepared, parasagittal slices were allowed to recover at room temperature in oxygenated aCSF for 1 h before use. Slices were transferred to a submerged chamber maintained at room temperature and perfused with artificial cerebrospinal fluid at 2 ml min^−1. Standard extracellular recordings were used to monitor evoked field excitatory postsynaptic potentials (fEPSP) from stratum radiatum. The Schaffer collateral-commissural pathway was stimulated (constant voltage; 0.1 ms) at 0.033 Hz, using a stimulus intensity that evoked a peak amplitude ˜50% of the maximum. Synaptic potentials were low pass filtered at 2 kHz and digitally sampled at 10 kHz. The fEPSP slope was measured and expressed relative to baseline. Synaptic records are the average of 4 consecutive responses and stimulus artefacts are blanked for clarity. Recordings were made using an Axopatch 200B amplifier and analyzed using LTP v2.4 software. In synaptic plasticity studies, the degree of potentiation was calculated 30-35 min after HFS and expressed as a percentage of baseline±standard error of mean (SEM).
To determine if the leptin hexamers influence the magnitude of activity-dependent synaptic plasticity, standard extracellular recording techniques were used to assess the effects of leptin (116-121, 117-122, 118-123, 120-125, 124-129 and 125-130) on the magnitude of LTP induced by high frequency stimulation (100 Hz, 1 s) in acute hippocampal slices. […] In parallel studies, application of leptin (118-123; 158±3.8%; n=7; p<0.05; FIG. 8) or leptin (120-125; to 163±8.8% of baseline; n=5; p<0.05) also facilitated LTP, compared to control LTP (FIG. 8).

[1] = tested on: leptin-deficient ob/ob mice; conditions: cited from earlier work
[2] = tested on: juvenile hippocampal slices (P13-21); assay: Primed burst stimulation: conversion of STP into persistent increase in synaptic transmission (fEPSP); format: cell-based, Sprague Dawley rats; conditions: 50 nM, at 40 min
Method: as §1
It is known that NMDA receptors contribute little to basal excitatory synaptic transmission but synaptic activation of NMDA receptors is crucial for LTP induction at hippocampal synapses (Bliss and Collingridge 1993). Previous studies indicate that lep-tin enhances the magnitude of activity-dependent LTP in acute hippocampal slices (Oomura et al. 2006) and following direct administration into the hippocampus in vivo (Wayner et al. 2004). We have also shown that leptin facilitates NMDA receptor-dependent synaptic plasticity as leptin promotes conversion of short term potentiation (STP) to hippocampal LTP (Shanley et al. 2001). […]

Substance | increase in episodic memory performance (mice) [fold] | magnitude of LTP after HFS (100 Hz, 1 s) (acute hippocampal slices) | body weight [1] | food intake [1] | synaptic transmission after primed burst stimulation [2]
CSLPQT (listed as Mus musculus) [leptin (117-122)] | 8 | 191±19.7 % of baseline | – | – | –
SCSLPQ (listed as Mus musculus) [leptin (116-121)] | 8 | 162±6.3 % of baseline | reduced food intake and body weight | reduced food intake and body weight | –
SCSLPQTSGLQKPES (listed as Mus musculus) [leptin (116-130)] | – | – | reduced food intake and body weight | reduced food intake and body weight | 143±6.4 % of baseline
leptin (22-56): leptin fragment amino acids 22-56 (Bachem), comparison fragment (VPIQKVQDDTKTLIKTIVTRINDISHTQSVSSKQK; UniProt P41159 22-56, looked up, fragment) [reference compound] | – | – | – | – | only STP was observed
leptin: the metabolic hormone leptin, whole (full length) leptin molecule; human leptin from Sigma in SH-SY5Y work | – | – | – | – | 155±6.1 % of baseline
